Results reported in paper PMC11915075, “Dibenzo [a, c] phenazin-11-yl(phenyl) methanone (SBLJ23), a novel selective inhibitor targeting JAK2^V617F mutation in myeloproliferative neoplasms” (Oncology Research, 2025).

Molecular target: JAK2 (Homo sapiens, UniProt O60674)
Test: biochemical

Chain of JAK2 (O60674 whole entry): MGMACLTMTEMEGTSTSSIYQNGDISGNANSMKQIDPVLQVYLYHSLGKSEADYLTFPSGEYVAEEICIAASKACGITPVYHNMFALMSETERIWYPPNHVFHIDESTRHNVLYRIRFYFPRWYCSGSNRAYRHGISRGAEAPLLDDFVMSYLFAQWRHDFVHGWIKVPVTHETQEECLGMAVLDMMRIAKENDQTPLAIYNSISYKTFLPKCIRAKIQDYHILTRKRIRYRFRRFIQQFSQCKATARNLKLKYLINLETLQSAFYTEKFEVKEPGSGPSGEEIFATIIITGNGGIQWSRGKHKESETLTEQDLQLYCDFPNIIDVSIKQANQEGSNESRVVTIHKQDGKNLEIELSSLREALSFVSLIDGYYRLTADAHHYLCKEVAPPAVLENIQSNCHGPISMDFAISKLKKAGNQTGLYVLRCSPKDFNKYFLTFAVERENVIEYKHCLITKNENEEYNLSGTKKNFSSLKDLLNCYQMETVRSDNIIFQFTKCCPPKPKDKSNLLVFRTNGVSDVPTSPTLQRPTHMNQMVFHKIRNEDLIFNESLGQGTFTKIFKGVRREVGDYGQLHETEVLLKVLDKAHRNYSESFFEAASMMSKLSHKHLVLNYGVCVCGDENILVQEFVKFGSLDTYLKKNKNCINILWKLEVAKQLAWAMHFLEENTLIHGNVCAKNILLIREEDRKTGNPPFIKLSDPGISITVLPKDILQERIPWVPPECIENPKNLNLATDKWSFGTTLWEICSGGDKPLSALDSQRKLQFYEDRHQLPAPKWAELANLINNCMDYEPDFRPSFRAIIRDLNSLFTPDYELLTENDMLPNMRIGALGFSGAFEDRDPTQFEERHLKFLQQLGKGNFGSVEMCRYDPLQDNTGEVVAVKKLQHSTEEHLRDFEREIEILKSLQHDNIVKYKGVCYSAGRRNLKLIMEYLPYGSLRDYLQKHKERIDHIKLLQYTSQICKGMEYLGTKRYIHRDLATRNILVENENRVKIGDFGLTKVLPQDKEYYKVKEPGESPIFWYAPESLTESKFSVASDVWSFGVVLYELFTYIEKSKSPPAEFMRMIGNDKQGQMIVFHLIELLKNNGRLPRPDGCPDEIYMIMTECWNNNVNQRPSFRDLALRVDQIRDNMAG

O=C(c1ccccc1)c1ccc2nc3c4ccccc4c4ccccc4c3nc2c1 [SBLJ23, Dibenzo [a, c] phenazin-11-yl(phenyl) methanone]
IC50: 522 nM
